Data from US20240072809A1, “ASGPR-BINDING COMPOUNDS FOR THE DEGRADATION OF EXTRACELLULAR PROTEINS” (Avilar Therapeutics, Inc., priority 2020, published 2024).
pKd: −log10 of the molar value. Where two headings read alike, the source gives them in different places.

Biological target: ASGPR (Homo sapiens (Human), UniProt P07306)
Assay: Affinity to ASGPR measured by surface plasmon resonance (SPR)
Format: binding
Details: ASGPR ligands
[1] = Table 4, class symbols, read-out: ASGPR_PR Binding KD
[2] = Table 4, numeric lower bounds, read-out: ASGPR_PR Binding KD
[3] = Table 2, Biacore 8K, 25° C., steady state fit, read-out: SPR Binding External Calculation: KD

Chain of ASGPR (P07306 whole entry): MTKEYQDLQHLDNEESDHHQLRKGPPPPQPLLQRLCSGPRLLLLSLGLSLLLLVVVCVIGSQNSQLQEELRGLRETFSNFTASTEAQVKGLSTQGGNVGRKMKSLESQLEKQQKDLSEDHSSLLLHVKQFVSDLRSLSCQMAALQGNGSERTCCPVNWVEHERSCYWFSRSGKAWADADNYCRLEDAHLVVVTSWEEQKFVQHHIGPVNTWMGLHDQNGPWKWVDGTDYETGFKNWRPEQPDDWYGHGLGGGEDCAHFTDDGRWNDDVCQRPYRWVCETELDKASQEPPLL

COc1cc(C#N)cc(N[C@H]2CO[C@H](CO)[C@H](O)[C@@H]2O)n1 [Compound A364, 2-(((3S,4R,5R,6R)-4,5-dihydroxy-6-(hydroxymethyl)tetrahydro-2H-pyran-3-yl)amino)-6-methoxyisonicotinonitrile] was tested, and the pKd [1] was > 4.00.

CSc1cc(N[C@H]2CO[C@H](CO)[C@H](O)[C@@H]2O)nc(C(N)=O)n1 [Compound A352, 4-(((3S,4R,5R,6R)-4,5-dihydroxy-6-(hydroxymethyl)tetrahydro-2H-pyran-3-yl)amino)-6-(methylthio)pyrimidine-2-carboxamide] was tested, and the pKd [2] was < 4.70.

With COC(=O)[C@@H]1CO[C@H](CO)[C@H](O)[C@@H]1O [Compound A401, methyl (3R,4R,5R,6R)-4,5-dihydroxy-6-(hydroxymethyl)tetrahydro-2H-pyran-3-carboxylate] the pKd [2] was < 3.70.

For OC[C@H]1OC[C@H](Nc2ccc(C(F)(F)F)nn2)[C@@H](O)[C@H]1O [Compound A313], the pKd [2] was < 4.70.

For CO[C@@H]1O[C@H](CO)[C@H](O)[C@H](O)[C@H]1Nc1nc(Cl)ns1 [Compound A106, (2R,3R,4R,5R,6R)-5-((3-chloro-1,2,4-thiadiazol-5-yl)amino)-2-(hydroxymethyl)-6-methoxytetrahydro-2H-pyran-3,4-diol], the pKd [3] was > 4.00.

In the case of OC[C@@]12CO[C@@H](O1)[C@H](Nc1ncns1)[C@@H](O)[C@H]2O [Compound A290], the pKd [1] was > 4.00.

In the case of COc1cc(C#N)nc(N[C@H]2CO[C@H](CO)[C@H](O)[C@@H]2O)n1 [Compound A346, 2-(((3S,4R,5R,6R)-4,5-dihydroxy-6-(hydroxymethyl)tetrahydro-2H-pyran-3-yl)amino)-6-methoxypyrimidine-4-carbonitrile], the pKd [1] was > 4.00.

In the case of COc1nc(Cl)cc(N[C@H]2CO[C@H](CO)[C@H](O)[C@@H]2O)n1 [Compound A327], the pKd [1] was > 4.00.

In the case of N#Cc1sc(N[C@H]2CO[C@H](CO)[C@H](O)[C@@H]2O)nc1Cl [Compound A95, 4-chloro-2-(((3S,4R,5R,6R)-4,5-dihydroxy-6-(hydroxymethyl)tetrahydro-2H-pyran-3-yl)amino)thiazole-5-carbonitrile], the pKd [3] was > 4.00.

In the case of OC[C@H]1OC[C@H](Nc2cc(Cl)c(Cl)cn2)[C@@H](O)[C@H]1O [Compound A298], the pKd [1] was > 4.00.

For CO[C@@H]1O[C@H](CO)[C@H](O)[C@H](O)[C@@H]1OC [Compound A217, (2R,3R,4S,5S,6R)-2-(hydroxymethyl)-5,6-dimethoxytetrahydro-2H-pyran-3,4-diol], the pKd [3] was < 3.00.

In the case of OC[C@H]1OC[C@H](Nc2cnc(C(F)(F)F)cn2)[C@@H](O)[C@H]1O [Compound A314], the pKd [2] was < 4.70.

For CO[C@H]1O[C@H](CO)[C@H](O)[C@H](O)[C@H]1Nc1ncc(Cl)cc1F [Compound A113], the pKd [3] was > 4.00.

For OC[C@H]1OC[C@H](Nc2cncc(C(F)(F)F)n2)[C@@H](O)[C@H]1O [Compound A315], the pKd [1] was > 4.00.

Work on CS(=O)(=O)N[C@@H]1CO[C@H](CO)[C@H](O)[C@@H]1O [Compound A131, N-((3R,4R,5R,6R)-4,5-dihydroxy-6-(hydroxymethyl)tetrahydro-2H-pyran-3-yl)methanesulfonamide] yielded a pKd [1] of 3.30 to 4.00.

CO[C@@H]1O[C@H](CO)[C@H](O)[C@H](O)[C@H]1Nc1cccc(F)n1 [Compound A107, (2R,3R,4R,5R,6R)-5-((6-fluoropyridin-2-yl)amino)-2-(hydroxymethyl)-6-methoxytetrahydro-2H-pyran-3,4-diol] was tested, and the pKd [3] was < 3.00.

With OC[C@H]1OC[C@H](Nc2ccc(Cl)nn2)[C@@H](O)[C@H]1O [Compound A316] the pKd [2] was < 4.70.

CC(=O)N[C@@H]1CO[C@H](CO)[C@H](O)[C@@H]1O [Compound A127, N-((3R,4R,5R,6R)-4,5-dihydroxy-6-(hydroxymethyl)tetrahydro-2H-pyran-3-yl)acetamide] was tested, and the pKd [3] was > 4.00.

In the case of Nc1nsc(N[C@H]2CO[C@H](CO)[C@H](O)[C@@H]2O)n1 [Compound A341, (2R,3R,4R,5S)-5-((3-amino-1,2,4-thiadiazol-5-yl)amino)-2-(hydroxymethyl)tetrahydro-2H-pyran-3,4-diol], the pKd [1] was > 4.00.

For OC[C@H]1OC[C@@H](Nc2ccncn2)[C@@H](O)[C@H]1O [Compound A149], the pKd [2] was < 4.70.

With OC[C@H]1OC[C@H](Nc2nccc(Cl)c2C(F)(F)F)[C@@H](O)[C@H]1O [Compound A307] the pKd [1] was > 4.00.

With COc1cc(Cl)nc(N[C@H]2[C@H]3OC[C@](CO)(O3)[C@H](O)[C@@H]2O)n1 [Compound A292, (1S,2R,3R,4R,5S)-4-((4-chloro-6-methoxypyrimidin-2-yl)amino)-1-(hydroxymethyl)-6,8-dioxabicyclo[3.2.1]octane-2,3-diol] the pKd [1] was > 4.00.

CC(=O)NC[C@@H]1CO[C@H](CO)[C@H](O)[C@@H]1O [Compound A183, N-(((3R,4R,5R,6R)-4,5-dihydroxy-6-(hydroxymethyl)tetrahydro-2H-pyran-3-yl)methyl)acetamide] was tested, and the pKd [3] was 3.30 to 4.00.

In the case of CO[C@@H]1O[C@H](CO)[C@H](O)[C@H](O)[C@H]1Nc1ncc(Cl)cc1F [Compound A109], the pKd [3] was > 4.00.

With OC[C@H]1OC[C@H](Nc2cc(C(F)(F)F)cnn2)[C@@H](O)[C@H]1O [Compound A308] the pKd [2] was < 4.70.

For C[C@@H]1[C@H](Oc2ccccc2)O[C@H](CO)[C@H](O)[C@@H]1O [Compound A191, (2R,3R,4R,5S,6S)-2-(hydroxymethyl)-5-methyl-6-phenoxytetrahydro-2H-pyran-3,4-diol], the pKd [3] was < 3.00.

CO[C@H]1O[C@H](CO)[C@H](O)C[C@H]1Nc1nc(N2CCOCC2)ns1 [Compound A382] was tested, and the pKd [1] was > 4.00.

In the case of OC[C@H]1OC[C@H](Nc2ccnc(C(F)(F)F)n2)[C@@H](O)[C@H]1O [Compound A301], the pKd [1] was > 4.00.

For COc1ccnc(N[C@H]2CO[C@H](CO)[C@H](O)[C@@H]2O)n1 [Compound A323], the pKd [1] was > 4.00.

In the case of CO[C@@H]1O[C@H](CO)[C@H](O)[C@H](O)[C@H]1Nc1nccc(C(F)(F)F)n1 [Compound A384], the pKd [1] was > 4.00.

OC[C@H]1OC[C@H](Nc2cc(Cl)cc(Cl)n2)[C@@H](O)[C@H]1O [Compound A296] was tested, and the pKd [1] was > 4.00.

With N#Cc1nc(Cl)cc(N[C@H]2CO[C@H](CO)[C@H](O)[C@@H]2O)n1 [Compound A320] the pKd [1] was > 4.00.

In the case of C[C@@H]1CO[C@H](CO)[C@H](O)[C@@H]1O [Compound A182, (2R,3R,4R,5R)-2-(hydroxymethyl)-5-methyltetrahydro-2H-pyran-3,4-diol], the pKd [3] was < 3.00.

With COC(=O)c1cc(OC)nc(N[C@H]2CO[C@H](CO)[C@H](O)[C@@H]2O)n1 [Compound A374, methyl 2-(((3S,4R,5R,6R)-4,5-dihydroxy-6-(hydroxymethyl)tetrahydro-2H-pyran-3-yl)amino)-6-methoxypyrimidine-4-carboxylate] the pKd [2] was < 4.70.

OC[C@H]1OC[C@H](Nc2ncc(Cl)c(C(F)(F)F)n2)[C@@H](O)[C@H]1O [Compound A324] was tested, and the pKd [1] was > 4.00.

With CN1CCN(C[C@@H]2CO[C@H](CO)[C@H](O)[C@@H]2O)CC1 [Compound A390, (2R,3R,4R,5R)-2-(hydroxymethyl)-5-((4-methylpiperazin-1-yl)methyl) tetrahydro-2H-pyran-3,4-diol] the pKd [2] was < 3.70.

With OC[C@H]1OC[C@H](Nc2cc(Cl)nc(C(F)(F)F)n2)[C@@H](O)[C@H]1O [Compound A328] the pKd [2] was < 4.70.

O=c1nc(N[C@H]2CO[C@H](CO)[C@H](O)[C@@H]2O)[nH]c(=O)[nH]1 [Compound A283] showed a pKd [3] of 3.30 to 4.00.

For OC[C@H]1OC[C@@H](CN2CCOCC2)[C@@H](O)[C@H]1O [Compound A209, (2R,3R,4R,5R)-2-(hydroxymethyl)-5-(morpholinomethyl)tetrahydro-2H-pyran-3,4-diol], the pKd [3] was < 3.00.

Compound OC[C@H]1OC[C@@H](c2ccc(F)cc2)[C@@H](O)[C@H]1O [Compound A164, (2R,3R,4R,5R)-5-(4-fluorophenyl)-2-(hydroxymethyl)tetrahydro-2H-pyran-3,4-diol] has a pKd [3] of 3.00 to 3.30.

CO[C@@H]1O[C@H](CO)[C@H](O)[C@H](O)[C@H]1Nc1nc(C#N)cs1 [Compound A386] was tested, and the pKd [2] was < 4.70.

OC[C@@]12CO[C@@H](O1)[C@H](Nc1nc(Br)ns1)[C@@H](O)[C@H]2O [Compound A288] was tested, and the pKd [1] was > 4.00.

CO[C@H]1O[C@H](CO)[C@H](O)[C@H](O)[C@H]1Nc1ncns1 [Compound A378] was tested, and the pKd [1] was > 4.00.

OC[C@H]1OC[C@H](Nc2cc(Cl)ncn2)[C@@H](O)[C@H]1O [Compound A321] was tested, and the pKd [1] was > 4.00.

OC[C@H]1OC[C@@H](CNc2nc(Cl)ns2)[C@@H](O)[C@H]1O [Compound A188, (2R,3R,4R,5R)-5-(((3-chloro-1,2,4-thiadiazol-5-yl)amino)methyl)-2-(hydroxymethyl)tetrahydro-2H-pyran-3,4-diol] was tested, and the pKd [1] was 3.30 to 4.00.

For OC[C@H]1OC[C@H](Nc2nc(C(F)(F)F)cs2)[C@@H](O)[C@H]1O [Compound A306], the pKd [1] was > 4.00.

With CO[C@@H]1O[C@H](CO)[C@H](O)[C@H](O)[C@H]1Nc1nc(=O)[nH]c(=O)[nH]1 [Compound A112, 6-(((2R,3R,4R,5R,6R)-4,5-dihydroxy-6-(hydroxymethyl)-2-methoxytetrahydro-2H-pyran-3-yl)amino)-1,3,5-triazine-2,4(1H,3H)-dione] the pKd [3] was > 4.00.

NC(=O)[C@@H]1CO[C@H](CO)[C@H](O)[C@@H]1O [Compound A174, (3R,4R,5R,6R)-4,5-dihydroxy-6-(hydroxymethyl)tetrahydro-2H-pyran-3-carboxamide] was tested, and the pKd [1] was > 4.00.

With COc1cc(N2CCN(C)CC2)nc(N[C@H]2CO[C@H](CO)[C@H](O)[C@@H]2O)n1 [Compound A350, (2R,3R,4R,5S)-2-(hydroxymethyl)-5-((4-methoxy-6-(4-methylpiperazin-1-yl)pyrimidin-2-yl)amino)tetrahydro-2H-pyran-3,4-diol] the pKd [2] was < 4.70.

In the case of CO[C@@H]1O[C@H](CO)[C@H](O)[C@H](O)[C@H]1Nc1nc(C(=O)O)cs1 [Compound A385], the pKd [2] was < 3.70.

“(2R,3R,4R,5R)-2-(hydroxymethyl)-5-((4-methylpiperazin-1-yl)methyl)tetrahydro-2H-pyran-3,4-diol [Compound A212]” showed a pKd [1] of 3.30 to 4.00.

In the case of CO[C@H]1O[C@H](CO)[C@H](O)[C@H](O)[C@H]1Nc1nc(Cl)c(C#N)s1 [Compound A379], the pKd [1] was > 4.00.

OC[C@H]1OC[C@H](Nc2cccc(C(F)(F)F)n2)[C@@H](O)[C@H]1O [Compound A302] was tested, and the pKd [1] was > 4.00.
